Laboratory results taken from US11447466B2, “Substituted indole compounds useful as inhibitors of TLR7/8/9” (BRISTOL-MYERS SQUIBB COMPANY, priority 2017, dated 2022).

How the values were obtained:
Format in all cases: cell-based
human TLR8 = target: T1, human TLR8 (Homo sapiens, UniProt Q9NR97); test: TLR8 inhibition reporter assay (HEK-Blue SEAP reporter, R848 stimulation); conditions: HEK-Blue cells overexpressing human TLR8, SEAP reporter, R848 15.9 μM, 22 hour incubation
T1 construct: host or cells: HEK-Blue cells
T1 sequence (Q9NR97 27-1041): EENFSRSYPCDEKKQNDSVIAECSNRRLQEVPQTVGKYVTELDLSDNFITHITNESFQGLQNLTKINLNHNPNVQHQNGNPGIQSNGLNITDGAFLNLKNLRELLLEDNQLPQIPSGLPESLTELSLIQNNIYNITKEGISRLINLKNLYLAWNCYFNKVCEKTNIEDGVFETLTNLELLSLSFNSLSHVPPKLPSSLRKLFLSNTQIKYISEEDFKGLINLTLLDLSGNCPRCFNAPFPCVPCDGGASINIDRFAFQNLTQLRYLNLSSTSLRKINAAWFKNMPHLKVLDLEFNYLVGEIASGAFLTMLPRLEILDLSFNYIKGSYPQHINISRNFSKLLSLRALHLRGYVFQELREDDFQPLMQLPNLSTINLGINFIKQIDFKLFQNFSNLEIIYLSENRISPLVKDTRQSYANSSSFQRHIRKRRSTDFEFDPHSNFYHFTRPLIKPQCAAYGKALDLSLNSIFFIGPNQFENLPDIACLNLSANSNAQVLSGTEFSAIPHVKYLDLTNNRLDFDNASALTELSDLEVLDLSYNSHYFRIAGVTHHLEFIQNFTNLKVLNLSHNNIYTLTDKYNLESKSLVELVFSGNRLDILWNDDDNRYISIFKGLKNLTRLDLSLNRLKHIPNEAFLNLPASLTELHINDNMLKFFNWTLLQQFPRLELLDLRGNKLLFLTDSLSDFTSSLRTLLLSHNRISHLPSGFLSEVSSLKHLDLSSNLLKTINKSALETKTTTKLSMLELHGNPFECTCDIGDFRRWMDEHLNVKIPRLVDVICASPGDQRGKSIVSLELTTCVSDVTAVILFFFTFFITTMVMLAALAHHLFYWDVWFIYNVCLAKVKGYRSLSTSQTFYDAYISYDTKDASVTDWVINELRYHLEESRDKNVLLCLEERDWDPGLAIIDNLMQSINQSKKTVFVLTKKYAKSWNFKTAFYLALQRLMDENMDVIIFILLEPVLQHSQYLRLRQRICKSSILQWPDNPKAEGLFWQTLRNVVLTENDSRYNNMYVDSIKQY
Procedure, shortened: (§1)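 Human TLR7/8/9 HEK-Blue reporter lines; dose range 0.05 nM–50 μM; 30 min RT preincubation; stimulus gardiquimod 7.5 μM / R848 15.9 μM / ODN2006 5 nM respectively; 22 h, 37 °C; SEAP detected colorimetrically.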

human TLR7 = target: T2, human TLR7 (Homo sapiens, UniProt Q9NYK1); test: TLR7 inhibition reporter assay (HEK-Blue SEAP reporter, gardiquimod stimulation); conditions: HEK-Blue cells overexpressing human TLR7, SEAP reporter, gardiquimod 7.5 μM, 22 hour incubation
T2 construct: host or cells: HEK-Blue cells
T2 sequence (Q9NYK1 27-1049): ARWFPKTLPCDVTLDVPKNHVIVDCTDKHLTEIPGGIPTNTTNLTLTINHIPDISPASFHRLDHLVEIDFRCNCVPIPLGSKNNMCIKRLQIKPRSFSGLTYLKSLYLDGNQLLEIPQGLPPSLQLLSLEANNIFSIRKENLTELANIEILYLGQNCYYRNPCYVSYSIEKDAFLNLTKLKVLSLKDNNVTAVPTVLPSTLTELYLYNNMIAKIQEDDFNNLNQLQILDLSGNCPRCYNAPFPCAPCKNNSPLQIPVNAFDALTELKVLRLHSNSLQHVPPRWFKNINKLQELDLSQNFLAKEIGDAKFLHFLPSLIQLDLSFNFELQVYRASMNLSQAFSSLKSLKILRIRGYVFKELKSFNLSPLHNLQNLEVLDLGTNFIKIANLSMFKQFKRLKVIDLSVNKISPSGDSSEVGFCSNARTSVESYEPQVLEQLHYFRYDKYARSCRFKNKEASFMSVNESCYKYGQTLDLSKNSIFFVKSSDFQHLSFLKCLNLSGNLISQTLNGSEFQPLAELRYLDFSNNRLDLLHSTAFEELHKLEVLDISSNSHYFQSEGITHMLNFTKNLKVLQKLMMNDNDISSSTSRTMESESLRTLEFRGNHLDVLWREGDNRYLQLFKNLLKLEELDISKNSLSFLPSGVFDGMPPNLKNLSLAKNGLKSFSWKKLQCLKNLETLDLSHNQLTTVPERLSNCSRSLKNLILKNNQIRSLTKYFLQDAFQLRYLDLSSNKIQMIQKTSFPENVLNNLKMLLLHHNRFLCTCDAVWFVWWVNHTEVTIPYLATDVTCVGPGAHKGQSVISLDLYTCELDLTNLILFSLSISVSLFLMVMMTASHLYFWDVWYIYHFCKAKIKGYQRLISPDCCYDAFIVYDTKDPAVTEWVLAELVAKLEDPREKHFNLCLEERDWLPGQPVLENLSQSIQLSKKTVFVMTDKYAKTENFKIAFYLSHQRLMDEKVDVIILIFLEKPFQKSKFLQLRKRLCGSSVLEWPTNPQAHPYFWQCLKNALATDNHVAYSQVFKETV
Procedure, shortened: as §1

human TLR9 = target: T3, human TLR9 (Homo sapiens, UniProt Q9NR96); test: TLR9 inhibition reporter assay (HEK-Blue SEAP reporter, ODN2006 stimulation); conditions: HEK-Blue cells overexpressing human TLR9, SEAP reporter, ODN2006 5 nM, 22 hour incubation
T3 construct: host or cells: HEK-Blue cells
T3 sequence (Q9NR96 26-1032): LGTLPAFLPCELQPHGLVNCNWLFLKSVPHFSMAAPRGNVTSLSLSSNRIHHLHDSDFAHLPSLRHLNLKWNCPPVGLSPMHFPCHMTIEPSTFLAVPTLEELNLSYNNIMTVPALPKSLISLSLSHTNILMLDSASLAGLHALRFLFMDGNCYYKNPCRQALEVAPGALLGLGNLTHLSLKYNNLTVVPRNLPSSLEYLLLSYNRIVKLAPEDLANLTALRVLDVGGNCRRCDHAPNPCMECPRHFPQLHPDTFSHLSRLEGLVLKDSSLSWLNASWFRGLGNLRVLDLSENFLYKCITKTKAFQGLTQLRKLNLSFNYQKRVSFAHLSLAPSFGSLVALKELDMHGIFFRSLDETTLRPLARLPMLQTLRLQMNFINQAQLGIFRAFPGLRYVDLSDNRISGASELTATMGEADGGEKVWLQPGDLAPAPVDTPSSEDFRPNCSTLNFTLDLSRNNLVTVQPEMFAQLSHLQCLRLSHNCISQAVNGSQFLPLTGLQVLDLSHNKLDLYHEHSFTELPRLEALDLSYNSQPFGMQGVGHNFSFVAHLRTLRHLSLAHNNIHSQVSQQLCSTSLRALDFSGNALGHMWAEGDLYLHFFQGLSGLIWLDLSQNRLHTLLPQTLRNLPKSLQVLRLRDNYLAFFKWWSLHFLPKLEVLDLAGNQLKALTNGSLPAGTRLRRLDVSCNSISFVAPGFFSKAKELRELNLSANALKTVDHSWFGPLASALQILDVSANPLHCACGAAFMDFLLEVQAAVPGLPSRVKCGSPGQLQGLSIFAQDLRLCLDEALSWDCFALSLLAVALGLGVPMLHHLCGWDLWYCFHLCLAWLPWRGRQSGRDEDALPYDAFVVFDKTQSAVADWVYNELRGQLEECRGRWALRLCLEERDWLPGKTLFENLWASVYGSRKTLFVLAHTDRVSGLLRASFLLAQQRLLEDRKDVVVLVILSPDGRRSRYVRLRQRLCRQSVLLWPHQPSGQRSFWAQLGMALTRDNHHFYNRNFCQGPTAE
Procedure, shortened: as §1

Structure (SMILES)	IC50 (human TLR8) [nM]	IC50 (human TLR7) [nM]	IC50 (human TLR9) [nM]
Cc1cc(-c2[nH]c3ccc(C4CCN(CCN5C(=O)CCC5=O)CC4)cc3c2C(C)C)cn(C)c1=O [Example 84, 1-(2-(4-(2-(1,5-dimethyl-6-oxo-1,6-dihydropyridin-3-yl)-3-isopropyl-1H-indol-5-yl)piperidin-1-yl)ethyl)pyrrolidine-2,5-dione]	73.6	44.3	≥ 50000
Cc1cc(-c2[nH]c3ccc(C4CCN(C5CCCCC5)CC4)cc3c2C(C)C)cn(C)c1=O [Example 87, 5-(5-(1-cyclohexylpiperidin-4-yl)-3-isopropyl-1H-indol-2-yl)-1,3-dimethylpyridin-2(1H)-one]	5.7	3.1	2560
CC(C)CCN1CCC(c2ccc3[nH]c(-c4cc(-c5ccccc5)c(=O)n(C)c4)c(C(C)C)c3c2)CC1 [Example 90, 5-(5-(1-isopentylpiperidin-4-yl)-3-isopropyl-1H-indol-2-yl)-1-methyl-3-phenylpyridin-2(1H)-one]	7	21.7	1970
Cc1c(-c2[nH]c3ccc(C4CCN(CCC(C)C)CC4)cc3c2C(C)C)cn(C)c(=O)c1Cl [Example 91, 3-chloro-5-(5-(1-isopentylpiperidin-4-yl)-3-isopropyl-1H-indol-2-yl)-1,4-dimethylpyridin-2(1H)-one]	5	2.6	4390
Cc1c(-c2[nH]c3ccc(C4CCN(CC5CCOCC5)CC4)cc3c2C(C)C)cn(C)c(=O)c1Cl [Example 93, 3-chloro-5-(3-isopropyl-5-(1-((tetrahydro-2H-pyran-4-yl)methyl)piperidin-4-yl)-1H-indol-2-yl)-1,4-dimethylpyridin-2(1H)-one]	4.9	5	5800
COCCN1CCC(c2ccc3[nH]c(-c4cn(C)c(=O)c(Cl)c4C)c(C(C)C)c3c2)CC1 [Example 95, 3-chloro-5-(3-isopropyl-5-(1-(2-methoxyethyl)piperidin-4-yl)-1H-indol-2-yl)-1,4-dimethylpyridin-2(1H)-one]	7.8	7	6090
Cc1c(-c2[nH]c3ccc(C4CCN(CC#N)CC4)cc3c2C(C)C)cn(C)c(=O)c1Cl [Example 96, 2-(4-(2-(5-chloro-1,4-dimethyl-6-oxo-1,6-dihydropyridin-3-yl)-3-isopropyl-1H-indol-5-yl)piperidin-1-yl)acetonitrile]	14.3	2	2860
Cc1c(-c2[nH]c3ccc(C4CCN(C5CCCC5)CC4)cc3c2C(C)C)cn(C)c(=O)c1Cl [Example 97, 3-chloro-5-(5-(1-cyclopentylpiperidin-4-yl)-3-isopropyl-1H-indol-2-yl)-1,4-dimethylpyridin-2(1H)-one]	9.7	5.2	2050
COCCOCCOCCN1CCC(c2ccc3[nH]c(-c4cn(C)c(=O)c(Cl)c4C)c(C(C)C)c3c2)CC1 [Example 98, 3-chloro-5-(3-isopropyl-5-(1-(2-(2-(2-methoxyethoxy)ethoxy)ethyl)piperidin-4-yl)-1H-indol-2-yl)-1,4-dimethylpyridin-2(1H)-one]	10.4	20.6	8750

These reach a lower IC50 (human TLR8). Values come first.

IC50 (human TLR8) [nM]	IC50 (human TLR7) [nM]	IC50 (human TLR9) [nM]	Structure (SMILES)
4.6	2.2	8450	Cc1cc(-c2[nH]c3ccc(C4CCN(CCCO)CC4)cc3c2C(C)C)cn(C)c1=O [Example 85, 5-(5-(1-(3-hydroxypropyl)piperidin-4-yl)-3-isopropyl-1H-indol-2-yl)-1,3-dimethylpyridin-2(1H)-one]
4.6	2.1	2540	Cc1cc(-c2[nH]c3ccc(C4CCN(CCC(C)C)CC4)cc3c2C(C)C)cn(C)c1=O [Example 86, 5-(5-(1-isopentylpiperidin-4-yl)-3-isopropyl-1H-indol-2-yl)-1,3-dimethylpyridin-2(1H)-one]
4.5	16.9	1960	CC(C)CN1CCC(c2ccc3[nH]c(-c4cc(-c5ccccc5)c(=O)n(C)c4)c(C(C)C)c3c2)CC1 [Example 89, 5-(5-(1-isobutylpiperidin-4-yl)-3-isopropyl-1H-indol-2-yl)-1-methyl-3-phenylpyridin-2(1H)-one]
2.8	3.2	8510	Cc1c(-c2[nH]c3ccc(C4CCN(CC5COC5)CC4)cc3c2C(C)C)cn(C)c(=O)c1Cl [Example 92, 3-chloro-5-(3-isopropyl-5-(1-(oxetan-3-ylmethyl)piperidin-4-yl)-1H-indol-2-yl)-1,4-dimethylpyridin-2(1H)-one]
1.3	8	2030	CC(C)c1c(-c2cc(-c3cncnc3)c(=O)n(C)c2)[nH]c2ccc(C3CCN(CC4COC4)CC3)cc12 [Example 94, 5-(3-isopropyl-5-(1-(oxetan-3-ylmethyl)piperidin-4-yl)-1H-indol-2-yl)-1-methyl-3-(pyrimidin-5-yl)pyridin-2(1H)-one]
